Test results from patent publication US10034885B2, “Corneal thickness modulating agent” (KOWA COMPANY, LTD., priority 2014, dated 2018).
Where two headings read alike, the source gives them in different places.

What was measured:
[1] = test system: cornea; experiment: Change of thickness of cornea in human, long-term eyedrop administration test; type: in vivo
Method: In a long-term administration test of Compound B in a subject having ophthalmologic disease, the influence on the cornea was examined (27-34 examples). In other words, in an group administered an eyedrop consisting of 0.4% Compound B twice a day for 52 weeks, the corneal thickness was measured using pachymeter before starting administration (week 0), 2 weeks after starting administration, 4 weeks after starting administration, and every 4 weeks thereafter. Measurement was performed five times, and the mean value calculated from the five measurements was adopted. In the measuring day, the drop was instilled in the eye at 9:00 and measurement was performed at 11:00. Note that at week 28, week 52, and during the follow-up (7-28 days after the last administration day), measurement was performed twice at 9:00 (at week 28 and week 52, it was done before the instillation) and 11:00. The upper part in FIG. 1 represents the result from the right eye, and the lower part in FIG. 1 represents the result from the left eye. The vertical axis represents changing values (μm) from week 0, and the horizontal axis represents the week for administration. At week 28, week 52, and during the follow-up (f/u), the measurement at 9:00 is represented with (0) and the measurement at 11:00 is represented with (2).

[2] = target: Rho kinase; conditions: according to Non-Patent Document 7; read-out: 50% inhibitory concentration (IC50) for Rho kinase; cited from earlier work
[3] = target: Rho kinase; conditions: disclosed in Patent Document 3; read-out: 50% inhibitory concentration (IC50) for Rho kinase; cited from earlier work
[4] = test system: rabbit corneal endothelial cell; conditions: reported in Patent Document 1; cited from earlier work

## C[C@H]1CNCCCN1S(=O)(=O)c1cccc2cncc(F)c12 [Compound B, (S)-(−)-1-(4-fluoro-5-isoquinolinesulfonyl)-2-methyl-1,4-homopiperazine]
[1]; human subjects with ophthalmologic disease, 0.4% eyedrop twice a day for 52 weeks, pachymeter, vs week 0
  thickness of the cornea during the period for administration: decreased
[1]; human, 0.4% eyedrop twice a day for 52 weeks
  thickness of the cornea during the continued administration: held at a nearly constant value
[1]; human, week 28 and week 52, measured at 9:00 before instillation
  thickness of the cornea before instillation (0): had a tendency to return to the value before starting administration
[1]; human, week 28 and week 52, measured at 11:00
  thickness of the cornea 2 hours after instillation (2): decreased

## C[C@@H](N)c1ccc(C(=O)Nc2ccnc3[nH]ccc23)cc1 [Compound Y-33983, (R)—(+)—N-(1H-pyrrolo[2,3-b]pyridin-4-yl)-4-(1-aminoethyl)benzamide]
[2]
  IC50: 3.6 nM

## CC(N)[C@H]1CC[C@H](C(=O)Nc2ccncc2)CC1 (single isomer, unassigned; (+)) [Compound Y-27632, (+)-trans-4-(1-aminoethyl)-1-(4-pyridylaminocarbonyl)cyclohexane]
[2]
  IC50: 110 nM

## CC1CNCCCN1S(=O)(=O)c1cccc2cncc(F)c12 (centres unmarked) [Compound A, 1-(4-fluoro-5-isoquinolinesulfonyl)-2-methyl-1,4-homopiperazine]
[3]
  IC50: 200 nM

## O=S(=O)(c1cccc2cnccc12)N1CCCNCC1 [fasudil, 1-(5-isoquinolinesulfonyl)-1,4-homopiperazine]
[4]
  adhesive property of a rabbit corneal endothelial cell: enhanced
